Legend:
[1] = target: T1, human B1R (bradykinin receptor 1) (Homo sapiens, UniProt P46663); experiment: FLIPR Ca2+ assay (Fluo-4) on CHO K1 cells stably transfected with the human B1R gene (hB1R cells): % inhibition at 10 μM / IC50, agonist Lys-Des-Arg9-bradykinin; format: cell-based; conditions: for inhibition at 10 µM: CHO-K1, human B1R
T1 construct: expressed in transfected cells; host or cells: CHO K1 cells
T1 sequence (P46663 1-353): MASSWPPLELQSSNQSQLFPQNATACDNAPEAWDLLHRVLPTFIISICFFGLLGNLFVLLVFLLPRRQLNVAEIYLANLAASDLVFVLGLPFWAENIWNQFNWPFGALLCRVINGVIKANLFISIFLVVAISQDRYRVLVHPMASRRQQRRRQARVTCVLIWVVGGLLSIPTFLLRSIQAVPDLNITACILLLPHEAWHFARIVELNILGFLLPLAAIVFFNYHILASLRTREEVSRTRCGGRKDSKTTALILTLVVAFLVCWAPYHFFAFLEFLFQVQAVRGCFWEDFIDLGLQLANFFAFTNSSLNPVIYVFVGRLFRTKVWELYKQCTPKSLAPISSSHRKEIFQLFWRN
Outline: (§1)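 Loading with Fluo-4 occurs for 60 min at 37 °C, or alternatively in buffer A, before FLIPR measurement. Compounds are applied, incubated 10–20 min, and then the EC80 agonist is added. Antagonism appears as reduced peak Ca2+ signal relative to maximal inhibition.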

[2] = target: T2, rat B1R (bradykinin receptor 1) (Rattus norvegicus, UniProt P97583); experiment: FLIPR Ca2+ assay (Fluo-4) on CHO K1 cells stably transfected with the B1R gene of the rat (rB1R cells): % inhibition at 10 μM / IC50, agonist Des-Arg9-bradykinin; format: cell-based; conditions: for inhibition at 10 µM: CHO-K1, rat B1R
T2 construct: expressed in transfected cells; host or cells: CHO K1 cells
T2 sequence (P97583 1-337): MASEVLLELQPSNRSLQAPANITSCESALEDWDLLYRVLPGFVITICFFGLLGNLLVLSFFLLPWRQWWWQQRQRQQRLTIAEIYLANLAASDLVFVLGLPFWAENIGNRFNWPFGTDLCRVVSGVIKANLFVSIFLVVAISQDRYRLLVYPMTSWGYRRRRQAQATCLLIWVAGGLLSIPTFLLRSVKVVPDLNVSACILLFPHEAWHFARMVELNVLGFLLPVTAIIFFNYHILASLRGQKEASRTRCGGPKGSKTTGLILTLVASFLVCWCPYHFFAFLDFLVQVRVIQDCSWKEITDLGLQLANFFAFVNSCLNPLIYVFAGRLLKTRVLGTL
Outline: as §1

| inhibition at 10 µM [1] [%] | inhibition at 10 µM [2] [%] | % Inhibition (human B1R) at 10 μM [1] [%] | % Inhibition (rat B1R) at 10 μM [2] [%] | % Inhibition (human B1R) at 10 μM ([1]; 10 µM) [%] | SMILES |
| --- | --- | --- | --- | --- | --- |
| 100 | 102 | – | – | – | CC1(C)CC(NC(=O)c2cc(F)ccc2Cl)c2cc(C(=O)N3CCC4(CC3)CCN(c3ccncc3)CC4)ccc21 (stereo not shown) [IND_CC-252, 2-Chloro-N-[3,3-dimethyl-6-(3-pyridin-4-yl-3,9-diazaspiro[5.5]undecane-9-carbonyl)-1,2-dihydro-inden-1-yl]-5-fluoro-benzamide] |
| 100 | 100 | – | – | – | O=C(NC1CCc2ccc(C(=O)N3CCC4(CCN(c5ccncc5)CC4)C3)cc21)c1cc(F)ccc1Cl (stereo not shown) [IND_CC-253, 2-Chloro-5-fluoro-N-[6-(8-pyridin-4-yl-2,8-diazaspiro[4.5]decane-2-carbonyl)-2,3-dihydro-1H-inden-1-yl]-benzamide] |
| 97 | 105 | – | – | – | CC1(C)CC(NC(=O)c2cccc(C(F)(F)F)c2Cl)c2cc(C(=O)N3CCC4(CC3)CCN(c3ccncc3)CC4)ccc21 (stereo not shown) [IND_CC-254, 2-Chloro-N-[3,3-dimethyl-6-(3-pyridin-4-yl-3,9-diazaspiro[5.5]undecane-9-carbonyl)-1,2-dihydro-inden-1-yl]-3-(trifluoromethyl)-benzamide] |
| 100 | 100 | – | – | – | O=C(NC1CCc2ccc(C(=O)N3CCC4(CCN(c5ccncc5)CC4)C3)cc21)c1cccc(C(F)(F)F)c1Cl (stereo not shown) [IND_CC-255, 2-Chloro-N-[6-(8-pyridin-4-yl-2,8-diazaspiro[4.5]decane-2-carbonyl)-2,3-dihydro-1H-inden-1-yl]-3-(trifluoromethyl)-benzamide] |
| 99 | 100 | – | – | – | CC1(C)CC(NS(=O)(=O)Cc2ccccc2C(F)(F)F)c2cc(C(=O)N3CCC4(CC3)CCN(c3ccncc3)CC4)ccc21 (stereo not shown) [IND_CC-256, N-[3,3-Dimethyl-6-(3-pyridin-4-yl-3,9-diazaspiro[5.5]undecane-9-carbonyl)-1,2-dihydro-inden-1-yl]-1-[2-(trifluoromethyl)-phenyl]-methanesulfonic acid amide] |
| 100 | 95 | – | – | – | O=C(c1ccc2c(c1)C(NS(=O)(=O)Cc1ccccc1C(F)(F)F)CC2)N1CCC2(CCN(c3ccncc3)CC2)C1 (stereo not shown) [IND_CC-258, N-[6-(8-Pyridin-4-yl-2,8-diazaspiro[4.5]decane-2-carbonyl)-2,3-dihydro-1H-inden-1-yl]-1-[2-(trifluoromethyl)-phenyl]-methanesulfonic acid amide] |
| 99 | 100 | – | – | – | Cc1cccc(Cl)c1S(=O)(=O)NC1CC(C)(C)c2ccc(C(=O)N3CCC4(CC3)CCN(c3ccncc3)CC4)cc21 (stereo not shown) [IND_CC-259, 2-Chloro-N-[3,3-dimethyl-6-(3-pyridin-4-yl-3,9-diazaspiro[5.5]undecane-9-carbonyl)-1,2-dihydro-inden-1-yl]-6-methyl-benzenesulfonic acid amide] |
| 100 | 100 | – | – | – | CC1(C)CC(NS(=O)(=O)CCc2ccccc2Cl)c2cc(C(=O)N3CCC4(CC3)CCN(c3ccncc3)CC4)ccc21 (stereo not shown) [IND_CC-260, 2-(2-Chlorophenyl)-N-[3,3-dimethyl-6-(3-pyridin-4-yl-3,9-diazaspiro[5.5]-undecane-9-carbonyl)-1,2-dihydro-inden-1-yl]-ethanesulfonic acid amide] |
| 100 | 103 | – | – | – | CN(C(=O)c1ccc(F)cc1Cl)C1CCc2ccc(C(=O)N3CCC4(CC3)CCN(c3ccncc3)CC4)cc21 (stereo not shown) [IND_CC-261, 2-Chloro-4-fluoro-N-methyl-N-[6-(9-pyridin-4-yl-3,9-diazaspiro[5.5]undecane-3-carbonyl)-2,3-dihydro-1H-inden-1-yl]-benzamide] |
| 100 | 105 | – | – | – | O=C(NC1CCc2ccc(C(=O)N3CCC4(CC3)CCN(c3ccncc3)CC4)cc21)c1ccc(F)cc1Cl (stereo not shown) [IND_CC-262, 2-Chloro-4-fluoro-N-[6-(9-pyridin-4-yl-3,9-diazaspiro[5.5]undecane-3-carbonyl)-2,3-dihydro-1H-inden-1-yl]-benzamide] |
| 100 | 81 | – | – | – | O=C(NC1CCc2ccc(C(=O)N3CCC4(CC3)CCN(c3ccncc3)C4)cc21)c1ccc(F)cc1Cl (stereo not shown) [IND_CC-263, 2-Chloro-4-fluoro-N-[6-(2-pyridin-4-yl-2,8-diazaspiro[4.5]decane-8-carbonyl)-2,3-dihydro-1H-inden-1-yl]-benzamide] |
| 97 | 106 | – | – | – | O=C(NC1CCc2ccc(C(=O)N3CCC4(CC3)CCN(c3ccncc3)C4)cc21)c1c(F)cccc1Cl (stereo not shown) [IND_CC-264, 2-Chloro-6-fluoro-N-[6-(2-pyridin-4-yl-2,8-diazaspiro[4.5]decane-8-carbonyl)-2,3-dihydro-1H-inden-1-yl]-benzamide] |
| 88 | 107 | – | – | – | CN(C(=O)c1cccc(Cl)c1Cl)C1CCc2ccc(C(=O)N3CCC4(CC3)CCN(c3ccncc3)CC4)cc21 (stereo not shown) [IND_CC-265, 2,3-Dichloro-N-methyl-N-[6-(9-pyridin-4-yl-3,9-diazaspiro[5.5]undecane-3-carbonyl)-2,3-dihydro-1H-inden-1-yl]-benzamide] |
| 98 | 106 | – | – | – | O=C(NC1CCc2ccc(C(=O)N3CCC4(CC3)CCN(c3ccncc3)CC4)cc21)c1cccc(Cl)c1Cl (stereo not shown) [IND_CC-266, 2,3-Dichloro-N-[6-(9-pyridin-4-yl-3,9-diazaspiro[5.5]undecane-3-carbonyl)-2,3-dihydro-1H-inden-1-yl]-benzamide] |
| 86 | 106 | – | – | – | O=C(NC1CCc2ccc(C(=O)N3CCC4(CC3)CCN(c3ccncc3)C4)cc21)c1cccc(Cl)c1Cl (stereo not shown) [IND_CC-267, 2,3-Dichloro-N-[6-(2-pyridin-4-yl-2,8-diazaspiro[4.5]decane-8-carbonyl)-2,3-dihydro-1H-inden-1-yl]-benzamide] |
| 99 | 108 | – | – | – | CN(C(=O)c1c(Cl)cccc1Cl)C1CCc2ccc(C(=O)N3CCC4(CC3)CCN(c3ccncc3)CC4)cc21 (stereo not shown) [IND_CC-268, 2,6-Dichloro-N-methyl-N-[6-(9-pyridin-4-yl-3,9-diazaspiro[5.5]undecane-3-carbonyl)-2,3-dihydro-1H-inden-1-yl]-benzamide] |
| 100 | 107 | – | – | – | O=C(NC1CCc2ccc(C(=O)N3CCC4(CC3)CCN(c3ccncc3)CC4)cc21)c1c(Cl)cccc1Cl (stereo not shown) [IND_CC-269, 2,6-Dichloro-N-[6-(9-pyridin-4-yl-3,9-diazaspiro[5.5]undecane-3-carbonyl)-2,3-dihydro-1H-inden-1-yl]-benzamide] |
| 100 | 108 | – | – | – | O=C(NC1CCc2ccc(C(=O)N3CCC4(CC3)CCN(c3ccncc3)C4)cc21)c1c(Cl)cccc1Cl (stereo not shown) [IND_CC-270, 2,6-Dichloro-N-[6-(2-pyridin-4-yl-2,8-diazaspiro[4.5]decane-8-carbonyl)-2,3-dihydro-1H-inden-1-yl]-benzamide] |
| – | – | 100 | 106 | – | O=C(NC1CCc2ccc(C(=O)N3CCC4(CC3)CCN(c3ccncc3)C4)cc21)c1ccccc1Cl (stereo not shown) [IND_CC-271, 2-Chloro-N-[6-(2-pyridin-4-yl-2,8-diazaspiro[4.5]decane-8-carbonyl)-2,3-dihydro-1H-inden-1-yl]-benzamide] |
| – | – | – | 107 | 99 | CN(C(=O)c1ccccc1Cl)C1CCc2ccc(C(=O)N3CCC4(CC3)CCN(c3ccncc3)CC4)cc21 (stereo not shown) [IND_CC-272, 2-Chloro-N-methyl-N-[6-(9-pyridin-4-yl-3,9-diazaspiro[5.5]undecane-3-carbonyl)-2,3-dihydro-1H-inden-1-yl]-benzamide] |
| 99 | 106 | – | – | – | O=C(NC1CCc2ccc(C(=O)N3CCC4(CC3)CCN(c3ccncc3)CC4)cc21)c1ccccc1Cl (stereo not shown) [IND_CC-273, 2-Chloro-N-[6-(9-pyridin-4-yl-3,9-diazaspiro[5.5]undecane-3-carbonyl)-2,3-dihydro-1H-inden-1-yl]-benzamide] |
| 8 | 102 | – | – | – | O=C(NC1CCc2ccc(C(=O)N3CCC4(CC3)CCN(c3ccc(C(F)(F)F)cc3)CC4)cc21)c1ccc(F)cc1Cl (stereo not shown) [IND_CC-274, 2-Chloro-4-fluoro-N-[6-[9-[4-(trifluoromethyl)-phenyl]-3,9-diazaspiro[5.5]undecane-3-carbonyl]-2,3-dihydro-1H-inden-1-yl]-benzamide] |
| 100 | 107 | – | – | – | CC1(C)Cc2ccc(C(=O)N3CCC4(CC3)CCN(c3ccncc3)CC4)cc2C1NC(=O)c1ccc(F)cc1Cl (stereo not shown) [IND_CC-275, 2-Chloro-N-[2,2-dimethyl-6-(9-pyridin-4-yl-3,9-diazaspiro[5.5]undecane-3-carbonyl)-1,3-dihydro-inden-1-yl]-4-fluoro-benzamide] |
